What was measured:
Assay in all cases: Glasshouse herbicidal test, pre- and post-emergence, percentage damage to the plant
Assay type in all cases: in vivo
Avena fatua (AVEFA) = settings: 250 g/h, evaluated after 13 days; for AVEFA POST percentage damage caused to the plant (five-point scale): post-emergence; for AVEFA PRE percentage damage caused to the plant (five-point scale): pre-emergence
Experimental: (§1) Seeds of a variety of test species are sown in standard soil in pots (Lolium perenne (LOLPE), Setaria faberi (SETFA), Alopecurus myosuroides (ALOMY), Echinochloa crus-galli (ECHCG), Avena fatua (AVEFA)). After cultivation for one day (pre-emergence) or after 8 days cultivation (post-emergence) under controlled conditions in a glasshouse (at 24/16° C., day/night; 14 hours light; 65% humidity), the plants are sprayed with an aqueous spray solution derived from the formulation of the technical active ingredient in acetone/water (50:50) solution containing 0.5% Tween 20 (polyoxyethelyene sorbitan monolaurate, CAS RN 9005-64-5). Compounds are applied at 250 g/h. The test plants are then grown in a glasshouse under controlled conditions in a glasshouse (at 24/16° C., day/night; 14 hours light; 65% humidity) and watered twice daily. After 13 days for pre and post-emergence, the test is evaluated for the percentage damage caused to the plant. The biological activities are shown in the following table on a five-point scale (5=80-100%; 4=60-79%; 3=40-59%; 2=20-39%; 1=0-19%).

[1] = test system: Alopecurus myosuroides (ALOMY); settings: 250 g/h, evaluated after 13 days; for ALOMY POST percentage damage caused to the plant (five-point scale): post-emergence; for ALOMY PRE percentage damage caused to the plant (five-point scale): pre-emergence
Experimental: as §1

Lolium perenne (LOLPE) = settings: 250 g/h, evaluated after 13 days; for LOLPE POST percentage damage caused to the plant (five-point scale): post-emergence; for LOLPE PRE percentage damage caused to the plant (five-point scale): pre-emergence
Experimental: as §1

[2] = test system: Echinochloa crus-galli (ECHCG); settings: 250 g/h, evaluated after 13 days; for ECHCG POST percentage damage caused to the plant (five-point scale): post-emergence; for ECHCG PRE percentage damage caused to the plant (five-point scale): pre-emergence
Experimental: as §1

Setaria faberi (SETFA) = settings: 250 g/h, evaluated after 13 days; for SETFA POST percentage damage caused to the plant (five-point scale): post-emergence; for SETFA PRE percentage damage caused to the plant (five-point scale): pre-emergence
Experimental: as §1

Row | SMILES | AVEFA POST percentage damage caused to the plant (five-point scale) (Avena fatua (AVEFA)) | AVEFA PRE percentage damage caused to the plant (five-point scale) (Avena fatua (AVEFA)) | ALOMY POST percentage damage caused to the plant (five-point scale) [1] | ALOMY PRE percentage damage caused to the plant (five-point scale) [1] | LOLPE POST percentage damage caused to the plant (five-point scale) (Lolium perenne (LOLPE)) | LOLPE PRE percentage damage caused to the plant (five-point scale) (Lolium perenne (LOLPE)) | ECHCG POST percentage damage caused to the plant (five-point scale) [2] | ECHCG PRE percentage damage caused to the plant (five-point scale) [2] | SETFA POST percentage damage caused to the plant (five-point scale) (Setaria faberi (SETFA)) | SETFA PRE percentage damage caused to the plant (five-point scale) (Setaria faberi (SETFA))
1 | CC#Cc1cc(C)c(C2C(=O)CC3(CCNC(=O)C3)CC2=O)c(C)c1 (stereo not drawn) [Compound A2] | 4 (4=60-79%) | 3 (3=40-59%) | 3 (3=40-59%) | 3 (3=40-59%) | 4 (4=60-79%) | 4 (4=60-79%) | 5 (5=80-100%) | 3 (3=40-59%) | 5 (5=80-100%) | 5 (5=80-100%)
2 | CC#Cc1cc(C)c(C2C(=O)CC3(CCCN(C(C)=O)C3)CC2=O)c(C)c1 (stereo not drawn) [Compound A3] | 5 (5=80-100%) | 3 (3=40-59%) | 5 (5=80-100%) | 2 (2=20-39%) | 5 (5=80-100%) | 2 (2=20-39%) | 5 (5=80-100%) | 2 (2=20-39%) | 5 (5=80-100%) | 3 (3=40-59%)
3 | CC#Cc1cc(C)c(C2C(=O)CC3(CCN(C(C)=O)C3)CC2=O)c(C)c1 (stereo not drawn) [Compound A4] | 5 (5=80-100%) | 5 (5=80-100%) | 5 (5=80-100%) | 5 (5=80-100%) | 5 (5=80-100%) | 5 (5=80-100%) | 5 (5=80-100%) | 5 (5=80-100%) | 5 (5=80-100%) | 5 (5=80-100%)
4 | CC#Cc1cc(C)c(C2C(=O)CC3(CCN(C)C(=O)C3=O)CC2=O)c(C)c1 (stereo not drawn) [Compound A5] | 4 (4=60-79%) | 3 (3=40-59%) | 5 (5=80-100%) | 3 (3=40-59%) | 5 (5=80-100%) | 5 (5=80-100%) | 5 (5=80-100%) | 5 (5=80-100%) | 5 (5=80-100%) | 5 (5=80-100%)
5 | CC#Cc1cc(C)c(C2C(=O)CC3(CCCN(C(=O)OC(C)(C)C)CC3)CC2=O)c(C)c1 (stereo not drawn) [Compound A6] | 4 (4=60-79%) | 4 (4=60-79%) | 5 (5=80-100%) | 4 (4=60-79%) | 5 (5=80-100%) | 5 (5=80-100%) | 5 (5=80-100%) | 5 (5=80-100%) | 5 (5=80-100%) | 5 (5=80-100%)
6 | CC#Cc1cc(C)c(C2C(=O)CC3(CCN(S(=O)(=O)CC)C3)CC2=O)c(C)c1 (stereo not drawn) [Compound A7] | 5 (5=80-100%) | 5 (5=80-100%) | 5 (5=80-100%) | 5 (5=80-100%) | 5 (5=80-100%) | 5 (5=80-100%) | 5 (5=80-100%) | 5 (5=80-100%) | 5 (5=80-100%) | 5 (5=80-100%)
7 | CC#Cc1cc(C)c(C2C(=O)CC3(CCCN(S(=O)(=O)CC)CC3)CC2=O)c(C)c1 (stereo not drawn) [Compound A8] | 5 (5=80-100%) | 5 (5=80-100%) | 5 (5=80-100%) | 5 (5=80-100%) | 5 (5=80-100%) | 5 (5=80-100%) | 5 (5=80-100%) | 5 (5=80-100%) | 5 (5=80-100%) | 5 (5=80-100%)
8 | CC#Cc1cc(C)c(C2C(=O)CC3(CCCN(C(C)=O)CC3)CC2=O)c(C)c1 (stereo not drawn) [Compound A9] | 5 (5=80-100%) | 5 (5=80-100%) | 5 (5=80-100%) | 5 (5=80-100%) | 5 (5=80-100%) | 5 (5=80-100%) | 5 (5=80-100%) | 5 (5=80-100%) | 5 (5=80-100%) | 5 (5=80-100%)
9 | CC#Cc1cc(C)c(C2C(=O)CC3(CCC(=O)NC3)CC2=O)c(C)c1 (stereo not drawn) [Compound A10] | 5 (5=80-100%) | 5 (5=80-100%) | 5 (5=80-100%) | 5 (5=80-100%) | 5 (5=80-100%) | 5 (5=80-100%) | 5 (5=80-100%) | 5 (5=80-100%) | 5 (5=80-100%) | 5 (5=80-100%)
10 | CC#Cc1cc(C)c(C2C(=O)CC3(CCC(=O)N(C(C)=O)C3)CC2=O)c(C)c1 (stereo not drawn) [Compound A11] | 5 (5=80-100%) | 3 (3=40-59%) | 5 (5=80-100%) | 5 (5=80-100%) | 5 (5=80-100%) | 5 (5=80-100%) | 5 (5=80-100%) | 5 (5=80-100%) | 5 (5=80-100%) | 5 (5=80-100%)
11 | CC#Cc1cc(C)c(C2C(=O)CC3(CCC(=O)N(CC(=O)OC)C3)CC2=O)c(C)c1 (stereo not drawn) [Compound A12] | 5 (5=80-100%) | 3 (3=40-59%) | 2 (2=20-39%) | 5 (5=80-100%) | 5 (5=80-100%) | 5 (5=80-100%) | 5 (5=80-100%) | 5 (5=80-100%) | 5 (5=80-100%) | 5 (5=80-100%)
12 | CC#Cc1cc(C)c(C2C(=O)CC3(CCN4C(=O)CCCC4C3)CC2=O)c(C)c1 (stereo not drawn) [Compound A13] | 5 (5=80-100%) | 5 (5=80-100%) | 5 (5=80-100%) | 5 (5=80-100%) | 5 (5=80-100%) | 5 (5=80-100%) | 5 (5=80-100%) | 5 (5=80-100%) | 5 (5=80-100%) | 5 (5=80-100%)

From patent publication US12479804B2, “Herbicidal compounds” (SYNGENTA CROP PROTECTION AG, priority 2019, dated 2025)
